Reference: US7288631B2 (Euroscreen, s.a., priority 1997, dated 2007)

Key:
Format in all cases: cell-based
P2Y11 receptor [1] = biological target: T1, P2Y11 receptor (Homo sapiens, UniProt Q96G91, DUP173-173); assay: Inositol trisphosphate (IP3) accumulation in 1321N1 astrocytoma cells transfected with the new receptor; conditions: for Effect on IP3 accumulation in concentration-action curves: large range of concentrations, FIG. 4A; for Agonist efficacy compared with ATP: same for the phosphoinositide and cAMP pathways; for IP3 accumulation in response to nucleotide: 100 μM, pool of G418-resistant P2Y11-transfected 1321N1 clones
T1 construct: expressed in transfected cells; host or cells: 1321N1 astrocytoma cells and CHO-K1 cells, G418-selected, pEFIN3 bicistronic vector
T1 sequence (Q96G91 with tags, fused parts or gaps DUP173-173): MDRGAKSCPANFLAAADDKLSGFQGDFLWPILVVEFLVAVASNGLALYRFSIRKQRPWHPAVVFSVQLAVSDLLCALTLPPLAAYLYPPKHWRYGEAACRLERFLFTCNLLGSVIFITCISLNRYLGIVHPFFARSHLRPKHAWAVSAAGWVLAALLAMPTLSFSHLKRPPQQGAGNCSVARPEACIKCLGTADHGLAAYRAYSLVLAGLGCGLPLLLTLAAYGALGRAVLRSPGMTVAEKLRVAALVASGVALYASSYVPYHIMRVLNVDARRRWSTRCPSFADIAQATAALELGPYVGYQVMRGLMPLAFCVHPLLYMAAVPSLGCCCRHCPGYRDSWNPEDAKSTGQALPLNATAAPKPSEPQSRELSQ
Method: (§1) The complete sequence of the new receptor according to the invention was subcloned between the Hind III and Nhe I sites of the bicistronic pEFIN3 expression vector. 1321N1 and CHO-K1 cells were transfected with the recombinant pEFIN3 plasmid or with the plasmid alone using the calcium phosphate precipitation method as described (19). The transfected cells were selected with 400 μg/ml G418 in complete medium (10% FCS, 100 units/ml penicillin, 100 μg/ml streptomycin and 2.5 μg/ml amphotericin B in Duibecco's modified Eagle's medium (DMEM)) two days after transfection and maintained in the same medium (10).
1321N1 cells were labelled for 24 hours with […] [^3H] inositol in inositol free DMEM containing 5% FCS, antibiotics, amphotericin, sodium pyruvate and 400 μg/ml G418. Cells were washed twice with Krebs-Ringer Hepes (KRH) buffer of the following composition (124 mM NaCl, 5 mM KC1, 1.25 mM MgSO4, 1.45 mM CaCl2, 1.25 mM KH2PO4, 25 mM Hepes (pH:7.4) and 8 mM glucose) and incubated in the same medium for 30 min. The cells were then challenged by various nucleotides for 30 s. The incubation was stopped by the addition of an ice cold 3% perchioric acid solution. IP were extracted and separated on Dowex columns as previously described (20).
(§2) The complete sequence of the new receptor was introduced in the pEFIN3 expression vector in order to transfect the 1321N1 astrocytoma cell line, used previously to characterize several P2Y subtypes (6, 10, 12). The pool of G418-resistant clones was tested for its functional response to several nucleotides.

P2Y11 receptor [2] = biological target: T1, P2Y11 receptor; assay: cAMP accumulation in CHO-K1 cells transfected with the new receptor; conditions: for Inhibition of the cAMP response to ATP (30 μM): indomethacin 10 μg/ml from 30 min before, 8 (p-sulfophenyl) theophylline 100 μM; for cAMP content in response to nucleotide: 100 μM, pool of G418 resistant P2Y11-transfected CHO-K1 clones
Method: as §1
(§3) Stably transfected CHO-K1 or 1321N1 cell lines were spread on Petri dishes (150.000 cells per dish) and cultured in Ham's F12 or DMEM medium containing 10% FCS, antibiotics, amphotericin, sodium pyruvate and 400 μg/ml G418. Cells were preincubated for 30 min in KRH buffer with Rolipram (25 μM) and incubated for different times in the presence of the agonists (15 min in most experiments). The incubation was stopped by the addition of 1 ml HC1 0.1 M. The incubation medium was dried up, resuspended in water and diluted as required. Cyclic AMP was quantified by radioimmunoassay after acetylation as previously described (21).
(§4) A much lower but significant endogeneous response due to the degradation of adenine nucleotides into adenosine was also obtained in the 1321N1 cells transfected with the vector alone. […] We therefore used CHO-K1 cells in order to characterize the coupling of the new receptor to the cAMP pathway. A pool of G418 resistant CHO-K1 clones was first tested for its response to several nucleotides at a concentration of 100 μM. […] The rank order of potency was the same as in the inositol phosphate study on 1321N1 cells.

P2Y11 receptor [3] = biological target: T1, P2Y11 receptor; assay: [Ca2+]i measurements on 1321N1 transfected cells; conditions: 10 μM
Method: as §2, with “nucleotides. […] The effect of ADP and 2MeSADP were minimal.” for “nucleotides.”

P2Y11 receptor [4] = biological target: T1, P2Y11 receptor; assay: cAMP measurement in 1321N1 cells transfected with the new receptor
Method: as §3, §4

[5] = system: CHO-K1 cells transfected with the vector alone; assay: cAMP in CHO-K1 cells transfected with the vector alone or untransfected; conditions: 100 μM
Method: as §1
as §3, with “(21). […]” for “(21).”

Compound	IP3 accumulation in response to nucleotide (P2Y11 receptor [1]; 30 s)	cAMP content in response to nucleotide (P2Y11 receptor [2])	other results
CSc1nc(N)c2ncn([C@@H]3O[C@H](COP(=O)(O)OP(=O)(O)O)[C@@H](O)[C@H]3O)c2n1 [2MeSADP, 2-methylthio-ADP]	–	–	Effect on IP3 accumulation in concentration-action curves (P2Y11 receptor [1]): minimal; Agonist efficacy compared with ATP (P2Y11 receptor [1]): almost inactive
CSc1nc(N)c2ncn([C@@H]3O[C@H](COP(=O)(O)OP(=O)(O)OP(=O)(O)O)[C@@H](O)[C@H]3O)c2n1 [2MeSATP, 2-methylthio-ATP]	–	–	EC50 (P2Y11 receptor [1]; P2Y11-transfected 1321N1 cells, 30 s, means±range of two independent experiments): 118 ± 15 µM; Agonist efficacy compared with ATP (P2Y11 receptor [1]): same maximal effect than ATP but presented a lower potency
Cn1c(=O)c2[nH]c(-c3ccc(S(=O)(=O)O)cc3)nc2n(C)c1=O [8 (p-sulfophenyl) theophylline]	–	–	Inhibition of the cAMP response to ATP (30 μM) (P2Y11 receptor [2]): inhibited neither
Nc1ncnc2c1ncn2[C@@H]1O[C@H](COP(=O)(O)OP(=O)(O)O)[C@@H](O)[C@H]1O [ADP]	inactive	completely inactive	Effect on IP3 accumulation in concentration-action curves (P2Y11 receptor [1]): minimal; [Ca2+]i response (P2Y11 receptor [3]): inactive
Nc1ncnc2c1ncn2[C@@H]1O[C@H](COP(=O)(O)O)[C@@H](O)[C@H]1O [AMP]	inactive	completely inactive	–
Nc1ncnc2c1ncn2[C@@H]1O[C@H](COP(=O)(O)OP(=O)(O)OP(=O)(O)OP(=O)(O)OC[C@H]2O[C@@H](n3cnc4c(N)ncnc43)[C@H](O)[C@@H]2O)[C@@H](O)[C@H]1O [AP4A]	inactive	–	–
Nc1ncnc2c1ncn2[C@@H]1O[C@H](COP(=O)(O)OP(=O)(O)OP(=O)(O)OP(=O)(O)OP(=O)(O)OP(=O)(O)OC[C@H]2O[C@@H](n3cnc4c(N)ncnc43)[C@H](O)[C@@H]2O)[C@@H](O)[C@H]1O [AP6A]	inactive	–	–
Nc1ncnc2c1ncn2[C@@H]1O[C@H](COP(=O)(O)OP(=O)(O)OP(=O)(O)O)[C@@H](O)[C@H]1O [ATP]	strong inositol trisphosphate (IP3) accumulation	strong increase in the cAMP content	cAMP response after short stimulation (P2Y11 receptor [2]; after 2 min of stimulation, CHO-K1): significant cAMP response; [Ca2+]i response (P2Y11 receptor [3]): response; cAMP response (P2Y11 receptor [4]): strong cAMP increase; cAMP content in vector-alone cells [5]: inactive
O=c1ccn([C@@H]2O[C@H](COP(=O)(O)OP(=O)(O)O)[C@@H](O)[C@H]2O)c(=O)[nH]1 [UDP]	inactive	completely inactive	–
O=c1ccn([C@@H]2O[C@H](COP(=O)(O)OP(=O)(O)OP(=O)(O)O)[C@@H](O)[C@H]2O)c(=O)[nH]1 [UTP]	inactive	completely inactive	–
Nc1ncnc2c1ncn2[C@@H]1O[C@H](CO)[C@@H](O)[C@H]1O [adenosine]	inactive	completely inactive	–
COc1ccc2c(c1)c(CC(=O)O)c(C)n2C(=O)c1ccc(Cl)cc1 [indomethacin, Indomethacin]	–	–	Inhibition of the cAMP response to ATP (30 μM) (P2Y11 receptor [2]): inhibited neither
Pertussis toxin	–	–	Effect on the ATP response (IP3) (P2Y11 receptor [1]; pertussis toxin 50 ng/ml, 24 h pretreatment): no effect
